Assays:
[1] = tested on: human acute myeloid leukemia cells OCI-AML-3 transplanted tumor; test: OCI-AML-3 NOD/SCID mice transplanted tumor model; type: in vivo; details: oral 60 mg/kg
MOLP-8 = test: Antiproliferative activity, CCK-8, MOLP-8; type: cell-based; details: MOLP-8, Human multiple myeloma; read-out: Cytotoxicity (IC50 μM)
Experimental: (§1) The tumor cells used were purchased from commercial cell banks (HCT116 purchased from ATCC, SKM 1 purchased from JCRB). The growth inhibition of cells was detected using the CCK-8 method. The specific steps were as follows. Cells in the logarithmic growth phase were seeded into a 96 well culture plate at an appropriate density, with 90 μL/well. After overnight cultivation, different concentrations of drugs were added for treatment for 72 h, with each concentration in triplicate, and corresponding concentration of vehicle control and cell-free blank wells were also set. After the treatment, 10 μL of CCK-8 was added to each well and the plate was incubated in an incubator for 2-4 hours, and the optical density (OD value) at a wavelength of 450 nm was measured using a SpectraMax 190 microplate reader. […] The experiment was repeated twice, and the mean value and SD were calculated.
(§2) The testing method for antiproliferative activity was the same as that mentioned in Pharmacological Experiment Example 2, and the results are shown in Table 4 and FIGS. 2-3.

OCI-LY-10 = test: Antiproliferative activity, CCK-8, OCI-LY-10; type: cell-based; details: OCI-LY-10, Diffuse large B-cell lymphoma; read-out: Cytotoxicity (IC50 μM)
Experimental: as §1, §2

NOMO-1 = test: Antiproliferative activity, CCK-8, NOMO-1; type: cell-based; details: NOMO-1, Acute monocytic leukemia; read-out: Cytotoxicity (IC50 μM)
Experimental: as §1, §2

KARPAS-1106P = test: Antiproliferative activity, CCK-8, KARPAS-1106P; type: cell-based; details: Primary mediastinal large B-cell lymphoma, read-out: Cytotoxicity (IC50 μM)
Experimental: as §1, §2

SK-BR-3 = test: Antiproliferative activity, CCK-8, SK-BR-3; type: cell-based; details: SK-BR-3, Breast cancer; read-out: Cytotoxicity (IC50 μM)
Experimental: as §1, §2

A375 = test: Antiproliferative activity, CCK-8, A375; type: cell-based, human; details: A375, Melanoma; read-out: Cytotoxicity (IC50 μM)
Experimental: as §1, §2

RS4; 11 = test: Antiproliferative activity, CCK-8, RS4; 11; type: cell-based; details: 11, Acute lymphoblastic leukemia, read-out: Cytotoxicity (IC50 μM)
Experimental: as §1, §2

U-2932 = test: Antiproliferative activity, CCK-8, U-2932; type: cell-based; details: U-2932, Diffuse large B-cell lymphoma; read-out: Cytotoxicity (IC50 μM)
Experimental: as §1, §2

CCRF-CEM = test: Antiproliferative activity, CCK-8, CCRF-CEM; type: cell-based; details: T-cell acute lymphoblastic leukemia, read-out: Cytotoxicity (IC50 μM)
Experimental: as §1, §2

HDAC3 = HDAC3 (Homo sapiens (Human), UniProt O15379); test: HDAC subtype inhibitory activity (HTRF), HDAC3; type: biochemical
Chain of HDAC3 (O15379 whole entry): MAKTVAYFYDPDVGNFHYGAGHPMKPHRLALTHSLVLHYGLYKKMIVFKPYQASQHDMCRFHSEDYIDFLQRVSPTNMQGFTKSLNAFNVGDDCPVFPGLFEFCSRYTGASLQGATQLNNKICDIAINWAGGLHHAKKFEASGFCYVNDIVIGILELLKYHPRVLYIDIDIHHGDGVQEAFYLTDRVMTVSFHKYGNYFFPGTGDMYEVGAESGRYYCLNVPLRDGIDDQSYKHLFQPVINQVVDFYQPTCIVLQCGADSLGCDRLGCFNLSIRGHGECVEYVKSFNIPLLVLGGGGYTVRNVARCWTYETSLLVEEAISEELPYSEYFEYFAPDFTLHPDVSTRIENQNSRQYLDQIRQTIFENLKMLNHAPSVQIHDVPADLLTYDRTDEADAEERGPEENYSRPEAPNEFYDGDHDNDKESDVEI
Chain of HDAC3 (Q9Y618 395-489 partner): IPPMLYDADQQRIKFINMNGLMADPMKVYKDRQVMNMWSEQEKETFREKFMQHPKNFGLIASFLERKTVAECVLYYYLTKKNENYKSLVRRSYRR
Experimental: (§3) Human recombinant HDAC family proteins with His and GST tags were expressed using insect baculovirus expression system, and a biologically active HDAC family recombinant protein was obtained through Ni affinity column protein purification. HTRF detection method was used with H3(1-21) K9Ac biotin as the substrate. […] Briefly, 20 μl of the activity testing system included the HDAC substrate (0.2 μM. 4 μl), the Human Recombinant Protein HDAC (2-5 ng)/μl.

Mino = test: Antiproliferative activity, CCK-8, Mino; type: cell-based; details: Mantle cell lymphoma, read-out: Cytotoxicity (IC50 μM)
Experimental: as §1, §2

NCI-H929 = test: Antiproliferative activity, CCK-8, NCI-H929; type: cell-based; details: NCI-H929, Human multiple myeloma; read-out: Cytotoxicity (IC50 μM)
Experimental: as §1, §2

HDLM-2 = test: Antiproliferative activity, CCK-8, HDLM-2; type: cell-based; details: HDLM-2, Hodgkin's lymphoma; read-out: Cytotoxicity (IC50 μM)
Experimental: as §1, §2

HH = test: Antiproliferative activity, CCK-8, HH; type: cell-based; details: Primary cutaneous T-cell non Hodgkin lymphoma, read-out: Cytotoxicity (IC50 μM)
Experimental: as §1, §2

OPM-2 = test: Antiproliferative activity, CCK-8, OPM-2; type: cell-based; details: OPM-2, Human multiple myeloid leukemia; read-out: Cytotoxicity (IC50 μM)
Experimental: as §1, §2

MV-4-11 = test: Antiproliferative activity, CCK-8, MV-4-11; type: cell-based; details: MV-4-11, Acute monocyte/Monocyte leukemia; read-out: Cytotoxicity (IC50 μM)
Experimental: as §1, §2

OCI-LY-3 = test: Antiproliferative activity, CCK-8, OCI-LY-3; type: cell-based; details: OCI-LY-3, Diffuse large B-cell lymphoma; read-out: Cytotoxicity (IC50 μM)
Experimental: as §1, §2

K-562 = test: Antiproliferative activity, CCK-8, K-562; type: cell-based; details: K-562, Chronic myeloid leukemia; read-out: Cytotoxicity (IC50 μM)
Experimental: as §1, §2

NU-DHL-1 = test: Antiproliferative activity, CCK-8, NU-DHL-1; type: cell-based; details: NU-DHL-1, Diffuse large B-cell lymphoma; read-out: Cytotoxicity (IC50 μM)
Experimental: as §1, §2

CAKI-1 = test: Antiproliferative activity, CCK-8, CAKI-1; type: cell-based; details: CAKI-1, Renal cell carcinoma; read-out: Cytotoxicity (IC50 μM)
Experimental: as §1, §2

[2] = tested on: human myelodysplastic syndrome cells SKM-1 transplanted tumor; test: SKM-1 NOD/SCID mice transplanted tumor model; type: in vivo; details: oral 60 mg/kg qd, 18 days
U937 = test: Antiproliferative activity, CCK-8, U937; type: cell-based; details: U937, Human tissue cell lymphoma; read-out: Cytotoxicity (IC50 μM)
Experimental: as §1, §2

Z138 = test: Antiproliferative activity, CCK-8, Z138; type: cell-based; details: Z138, Human mantle cell lymphoma; read-out: Cytotoxicity (IC50 μM)
Experimental: as §1, §2

HDAC10 = HDAC10 (Homo sapiens (Human), UniProt Q969S8); test: HDAC subtype inhibitory activity (HTRF), HDAC10; type: biochemical
Chain of HDAC10 (Q969S8 whole entry): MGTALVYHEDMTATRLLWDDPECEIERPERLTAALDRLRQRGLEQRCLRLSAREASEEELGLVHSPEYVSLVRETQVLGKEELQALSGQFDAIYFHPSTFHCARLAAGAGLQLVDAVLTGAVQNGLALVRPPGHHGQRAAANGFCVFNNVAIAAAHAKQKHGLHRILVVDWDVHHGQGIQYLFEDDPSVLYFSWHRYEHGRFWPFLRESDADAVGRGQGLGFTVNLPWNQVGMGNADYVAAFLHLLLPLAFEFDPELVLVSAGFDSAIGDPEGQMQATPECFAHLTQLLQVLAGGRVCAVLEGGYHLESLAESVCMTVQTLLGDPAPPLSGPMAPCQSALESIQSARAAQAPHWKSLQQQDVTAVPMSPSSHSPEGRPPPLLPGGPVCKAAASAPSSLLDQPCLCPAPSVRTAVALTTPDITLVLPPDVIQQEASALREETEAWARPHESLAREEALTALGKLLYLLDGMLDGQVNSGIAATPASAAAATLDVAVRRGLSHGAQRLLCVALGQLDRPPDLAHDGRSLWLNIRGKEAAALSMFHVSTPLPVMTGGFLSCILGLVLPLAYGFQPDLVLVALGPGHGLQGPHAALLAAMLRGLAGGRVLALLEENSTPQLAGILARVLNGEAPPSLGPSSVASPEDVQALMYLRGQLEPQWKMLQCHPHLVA
Experimental: as §3

TMD8 = test: Antiproliferative activity, CCK-8, TMD8; type: cell-based; details: TMD8, Diffuse large B-cell lymphoma; read-out: Cytotoxicity (IC50 μM)
Experimental: as §1, §2

VMM39 = test: Antiproliferative activity, CCK-8, VMM39; type: cell-based; details: VMM39, Melanoma; read-out: Cytotoxicity (IC50 μM)
Experimental: as §1, §2

HDAC8 = HDAC8 (Homo sapiens (Human), UniProt Q9BY41); test: HDAC subtype inhibitory activity (HTRF), HDAC8; type: biochemical
Chain of HDAC8 (Q9BY41 whole entry): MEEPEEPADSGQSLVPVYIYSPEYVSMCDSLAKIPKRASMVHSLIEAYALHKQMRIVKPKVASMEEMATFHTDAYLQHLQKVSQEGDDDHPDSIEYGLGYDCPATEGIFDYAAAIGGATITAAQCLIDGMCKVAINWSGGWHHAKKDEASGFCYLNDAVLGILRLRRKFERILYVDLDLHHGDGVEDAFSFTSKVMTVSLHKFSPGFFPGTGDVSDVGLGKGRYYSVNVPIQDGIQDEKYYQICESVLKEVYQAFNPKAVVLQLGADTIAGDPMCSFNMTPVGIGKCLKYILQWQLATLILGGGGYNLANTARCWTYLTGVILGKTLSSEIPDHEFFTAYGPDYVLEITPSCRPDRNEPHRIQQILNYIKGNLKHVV
Experimental: as §3

MDA-MB-453 = test: Antiproliferative activity, CCK-8, MDA-MB-453; type: cell-based; details: MDA-MB-453, Breast cancer; read-out: Cytotoxicity (IC50 μM)
Experimental: as §1, §2

## C[C@@H](c1ccc(C(=O)Nc2ccc(F)cc2N)cc1)n1nc(-c2ccc(CN(C)C)cc2)ccc1=O [Compound I-1]
[1]; OCI-AML-3 transplanted tumor, 14 days
  relative tumor proliferation rate (T/C): 7.75%
[1]; during the transplanted tumor experiment
  body weight of mice: remained basically unchanged
MOLP-8
  IC50: 0.632 ± 0.066 µM
OCI-LY-10
  IC50: 0.297 ± 0.042 µM
NOMO-1
  IC50: 0.523 ± 0.12 µM
KARPAS-1106P
  IC50: 0.498 ± 0.009 µM
SK-BR-3
  IC50: 0.72 ± 0.032 µM
A375
  IC50: 0.556 ± 0.018 µM
RS4; 11
  IC50: 0.412 ± 0.129 µM
U-2932
  IC50: 0.214 ± 0.001 µM
CCRF-CEM
  IC50: 0.382 ± 0.067 µM
HDAC3
  IC50: 420 ± 105 nM
Mino
  IC50: 0.142 ± 0.013 µM
NCI-H929
  IC50: 0.642 ± 0.025 µM
HDLM-2
  IC50: 0.647 ± 0.404 µM
HH
  IC50: 0.219 ± 0.093 µM
OPM-2
  IC50: 0.436 ± 0.222 µM
MV-4-11
  IC50: 0.088 ± 0.002 µM
OCI-LY-3
  IC50: 0.198 ± 0.048 µM
K-562
  IC50: 0.473 ± 0.171 µM
NU-DHL-1
  IC50: 0.243 µM
CAKI-1
  IC50: 0.594 ± 0.011 µM
[2]
  relative tumor proliferation rate (T/C): 11.78%
U937
  IC50: 0.435 ± 0.254 µM
Z138
  IC50: 0.363 ± 0.046 µM
HDAC10
  IC50: > 100000 nM
TMD8
  IC50: 0.807 ± 0.142 µM
VMM39
  IC50: 0.46 ± 0.032 µM
HDAC8
  IC50: > 100000 nM
MDA-MB-453
  IC50: 0.498 ± 0.036 µM

From patent US20240150300A1, “S-CONFIGURATION-CONTAINING AMINO BENZAMIDE PYRIDAZINONE COMPOUND, PREPARATION METHOD THEREFOR, AND PHARMACEUTICAL COMPOSITION AND APPLICATION THEREOF” (SHANGHAI INSTITUTE OF MATERIA MEDICA, CHINESE ACADEMY OF …, priority 2021, published 2024)
